According to US20250221410A1, “SUBSTITUTED 2-C-AZINES AND SALTS THEREOF, AND USE THEREOF AS HERBICIDAL ACTIVE SUBSTANCES” (BAYER AKTIENGESELLSCHAFT, priority 2022, published 2025):

Assays:
[1] = test system: SETVI: Setaria viridis; experiment: Post-emergence herbicidal efficacy at 80 g/ha, SETVI; assay type: in vivo; settings: visual rating about 3 weeks after treatment vs untreated controls
Procedure: (§1) Seeds of monocotyledonous and dicotyledonous weeds and crop plants were placed in sandy loam in plastic or organic planting pots, covered with soil and cultivated in a greenhouse under controlled growth conditions. 2 to 3 weeks after sowing, the test plants were treated at the one-leaf stage. The compounds of the invention, formulated in the form of wettable powders (WP) or as emulsion concentrates (EC), were then sprayed onto the green parts of the plants as aqueous suspension or emulsion with addition of 0.5% additive at a water application rate of 600 l/ha (converted). After the test plants had been kept in the greenhouse under optimum growth conditions for about 3 weeks, the activity of the preparations was rated visually in comparison to untreated controls. For example, 100% activity=the plants have died, 0% activity=like control plants. Tables B1 to B10 below show the effects of selected compounds of the general formula (I) according to Table 1 on various harmful plants and an application rate corresponding to 80 g/ha, which were obtained by the experimental procedure mentioned above.

[2] = test system: ABUTH: Abutilon theophrasti; experiment: Post-emergence herbicidal efficacy at 80 g/ha, ABUTH; assay type: in vivo; settings: rated visually after about 3 weeks vs untreated controls, 100% = plants have died, 0% = like control plants
Procedure: as §1

[3] = test system: MATIN: Matricaria inodora; experiment: Pre-emergence herbicide efficacy at 80 g/ha, MATIN; assay type: in vivo; settings: scored visually after about 3 weeks
Excerpt: (§2) Seeds of monocotyledonous and dicotyledonous weed plants and crop plants were placed in plastic or organic planting pots and covered with soil. The compounds of the invention, formulated in the form of wettable powders (WP) or as emulsion concentrates (EC), were then applied to the surface of the covering soil as aqueous suspension or emulsion with addition of 0.5% additive at a water application rate equivalent to 600 l/ha. After the treatment, the pots were placed in a greenhouse and kept under good growth conditions for the test plants. After about 3 weeks, the efficacy of the preparations was scored visually in comparison with untreated controls as percentages. For example, 100% activity=the plants have died, 0% activity=like control plants. Tables D1 to D12 below show the effects of selected compounds of the general formula (I) according to Table 1 on various harmful plants and an application rate corresponding to 80 g/ha, which were obtained by the experimental procedure mentioned above.

[4] = test system: AMARE: Amaranthus retroflexus; experiment: Pre-emergence herbicide efficacy at 80 g/ha, AMARE; assay type: in vivo; settings: scored visually after about 3 weeks
How it was run: (§3)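 Pre-emergence treatment: aqueous suspension or emulsion (0.5% additive, 600 l/ha water) applied at 80 g/ha to the covering soil over sown seeds. Visual percent-damage rating against untreated plants followed after about 3 greenhouse weeks, 0% meaning unaffected and 100% meaning dead.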

[5] = test system: SETVI: Setaria viridis; experiment: Pre-emergence herbicide efficacy at 80 g/ha, SETVI; assay type: in vivo; settings: scored visually after about 3 weeks
Excerpt: as §2

[6] = test system: VERPE: Veronica persica; experiment: Pre-emergence herbicide efficacy at 80 g/ha, VERPE; assay type: in vivo; settings: scored visually after about 3 weeks
How it was run: as §3

[7] = test system: ECHCG: Echinochloa crus-galli; experiment: Pre-emergence herbicide efficacy at 80 g/ha, ECHCG; assay type: in vivo; settings: scored visually after about 3 weeks
Excerpt: as §2

[8] = test system: DIGSA: Digitaria sanguinalis; experiment: Pre-emergence herbicide efficacy at 80 g/ha, DIGSA; assay type: in vivo; settings: scored visually after about 3 weeks
How it was run: as §3

[9] = test system: ABUTH: Abutilon theophrasti; experiment: Pre-emergence herbicide efficacy at 80 g/ha, ABUTH; assay type: in vivo; settings: scored visually after about 3 weeks
How it was run: as §3

[10] = test system: DIGSA: Digitaria sanguinalis; experiment: Post-emergence herbicidal efficacy at 80 g/ha, DIGSA; assay type: in vivo; settings: visual rating about 3 weeks after treatment vs untreated controls
Procedure: as §1

[11] = test system: ALOMY: Alopecurus myosuroides; experiment: Post-emergence herbicidal efficacy at 80 g/ha, ALOMY; assay type: in vivo; settings: visual rating about 3 weeks after treatment vs untreated controls
Procedure: as §1

[12] = test system: LOLRI: Lolium rigidum; experiment: Pre-emergence herbicide efficacy at 80 g/ha, LOLRI; assay type: in vivo; settings: scored visually after about 3 weeks
Excerpt: as §2

[13] = test system: POLCO; experiment: Pre-emergence herbicide efficacy at 80 g/ha, POLCO; assay type: in vivo; settings: Polygonum convolvulus, scored visually after about 3 weeks
How it was run: as §3

[14] = test system: AMARE: Amaranthus retroflexus; experiment: Post-emergence herbicidal efficacy at 80 g/ha, AMARE; assay type: in vivo; settings: visual rating about 3 weeks after treatment vs untreated controls
How it was run: (§4)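 Sow in sandy loam and grow in the greenhouse for 2 to 3 weeks. Spray the green parts at the one-leaf stage with a WP or EC suspension or emulsion plus 0.5% additive at 600 l/ha water. Keep plants about 3 weeks, then score damage visually against controls.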

[15] = test system: VERPE: Veronica persica; experiment: Post-emergence herbicidal efficacy at 80 g/ha, VERPE; assay type: in vivo; settings: visual rating about 3 weeks after treatment vs untreated controls
How it was run: as §4

[16] = test system: POLCO; experiment: Post-emergence herbicidal efficacy at 80 g/ha, POLCO; assay type: in vivo, Polygonum convolvulus; settings: visual rating about 3 weeks after treatment vs untreated controls
Procedure: as §1

[17] = test system: ALOMY: Alopecurus myosuroides; experiment: Pre-emergence herbicide efficacy at 80 g/ha, ALOMY; assay type: in vivo; settings: scored visually after about 3 weeks
Excerpt: as §2

[18] = test system: ECHCG: Echinochloa crus-galli; experiment: Post-emergence herbicidal efficacy at 80 g/ha, ECHCG; assay type: in vivo; settings: visual rating about 3 weeks after treatment vs untreated controls
Procedure: as §1

FC(F)c1cc(-c2c(Cl)cccc2Cc2ncc(Cl)cn2)on1 [Example 1-140]
80%: Post-emergence efficacy against SETVI [1] | Pre-emergence efficacy against MATIN in % [3] | Post-emergence efficacy against ALOMY [11]
100%: Post-emergence efficacy at 80 g/ha against ABUTH in % [2] | Pre-emergence efficacy against AMARE in % [4] | Pre-emergence efficacy against SETVI in % [5] | Pre-emergence efficacy against VERPE in % [6] | Pre-emergence efficacy against ECHCG in % [7] | Pre-emergence efficacy against DIGSA in % [8] | Pre-emergence efficacy against ABUTH in % [9] | Post-emergence efficacy against AMARE [14] | Post-emergence efficacy against VERPE [15] | Post-emergence efficacy against POLCO [16]
90%: Post-emergence efficacy against DIGSA [10] | Pre-emergence efficacy against LOLRI in % [12] | Pre-emergence efficacy against POLCO in % [13] | Pre-emergence efficacy against ALOMY in % [17] | Post-emergence efficacy against ECHCG [18]
